According to PubChem BioAssay (NCI):
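Interpolation was linear, between the two tested concentrations surrounding the appropriate level; five concentrations were tested over 48 hours in 96-well plates. GI50 is the concentration that inhibits growth by half. Definition used: TGI = concentration required for complete inhibition of growth.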

Columns and labels:
Experiment in all cases: inhibition of tumour cell growth, NCI panel, 48 h
786-0 renal = test system: 786-0 renal
A549 NSCLC = test system: A549 NSCLC
ACHN renal = test system: ACHN renal
BT-549 breast = test system: BT-549 breast
CAKI-1 renal = test system: CAKI-1 renal
CCRF-CEM leukemia = test system: CCRF-CEM leukemia
COLO 205 colon = test system: COLO 205 colon
DU-145 prostate = test system: DU-145 prostate
HCT-116 colon = test system: HCT-116 colon
HCT-15 colon = test system: HCT-15 colon
HL-60(TB) leukemia = test system: HL-60(TB) leukemia
HOP-62 NSCLC = test system: HOP-62 NSCLC
HS 578T breast = test system: HS 578T breast
HT29 colon = test system: HT29 colon
K-562 leukemia = test system: K-562 leukemia
LOX IMVI melanoma = test system: LOX IMVI melanoma
M14 melanoma = test system: M14 melanoma
MALME-3M melanoma = test system: MALME-3M melanoma
MCF7 breast = test system: MCF7 breast
MDA-MB-231 breast = test system: MDA-MB-231 breast
MDA-MB-435 = test system: MDA-MB-435
MOLT-4 leukemia = test system: MOLT-4 leukemia
NCI-H460 lung = test system: NCI-H460 lung
NCI-H522 lung = test system: NCI-H522 lung
NCI/ADR-RES ovarian = test system: NCI/ADR-RES ovarian
OVCAR-4 ovarian = test system: OVCAR-4 ovarian
OVCAR-5 ovarian = test system: OVCAR-5 ovarian
OVCAR-8 ovarian = test system: OVCAR-8 ovarian
PC-3 prostate = test system: PC-3 prostate
RPMI-8226 leukemia = test system: RPMI-8226 leukemia
RXF 393 renal = test system: RXF 393 renal
SF-268 CNS = test system: SF-268 CNS
SF-539 CNS = test system: SF-539 CNS
SK-MEL-28 melanoma = test system: SK-MEL-28 melanoma
SK-MEL-5 melanoma = test system: SK-MEL-5 melanoma
SK-OV-3 ovarian = test system: SK-OV-3 ovarian
SN12C renal = test system: SN12C renal
SNB-19 CNS = test system: SNB-19 CNS
SNB-75 CNS = test system: SNB-75 CNS
SR leukemia = test system: SR leukemia
SW-620 colon = test system: SW-620 colon
U251 CNS = test system: U251 CNS
UACC-257 melanoma = test system: UACC-257 melanoma
UACC-62 melanoma = test system: UACC-62 melanoma
UO-31 renal = test system: UO-31 renal

O=C1c2c(c3c4cc(Br)ccc4[nH]c3c3ccc4ccccc4c23)C(=O)N1CCN1CCCCC1
GI50 (786-0 renal): 1.68 µM | TGI (786-0 renal): 3.1 µM | GI50 (A549 NSCLC): 1.38 µM | TGI (A549 NSCLC): 2.74 µM | GI50 (ACHN renal): 0.783 µM | TGI (ACHN renal): 2.03 µM | GI50 (BT-549 breast): 9.5 µM | TGI (BT-549 breast): > 100 µM | GI50 (CAKI-1 renal): 1.29 µM | TGI (CAKI-1 renal): 2.79 µM | GI50 (CCRF-CEM leukemia): 0.331 µM | TGI (CCRF-CEM leukemia): 2.18 µM | GI50 (COLO 205 colon): 1.43 µM | TGI (COLO 205 colon): 3.15 µM | GI50 (DU-145 prostate): 1.1 µM | TGI (DU-145 prostate): 2.48 µM | GI50 (HCT-116 colon): 1.2 µM | TGI (HCT-116 colon): 2.52 µM | GI50 (HCT-15 colon): 1.54 µM | TGI (HCT-15 colon): 3.52 µM | GI50 (HL-60(TB) leukemia): 1.44 µM | TGI (HL-60(TB) leukemia): 6.1 µM | GI50 (HOP-62 NSCLC): 0.689 µM | TGI (HOP-62 NSCLC): 2.03 µM | GI50 (HS 578T breast): 2.04 µM | TGI (HS 578T breast): 4.89 µM | GI50 (HT29 colon): 1.23 µM | TGI (HT29 colon): 2.56 µM | GI50 (K-562 leukemia): 0.912 µM | TGI (K-562 leukemia): 3.3 µM | GI50 (LOX IMVI melanoma): 1.18 µM | TGI (LOX IMVI melanoma): 2.66 µM | GI50 (M14 melanoma): 1.36 µM | TGI (M14 melanoma): 2.81 µM | GI50 (MALME-3M melanoma): 1.62 µM | TGI (MALME-3M melanoma): 3.11 µM | GI50 (MCF7 breast): 0.178 µM | TGI (MCF7 breast): 1.77 µM | GI50 (MDA-MB-231 breast): 1.57 µM | TGI (MDA-MB-231 breast): 3.22 µM | GI50 (MDA-MB-435): 1.61 µM | TGI (MDA-MB-435): 3.11 µM | GI50 (MOLT-4 leukemia): 0.314 µM | TGI (MOLT-4 leukemia): 2.53 µM | GI50 (NCI-H460 lung): 0.39 µM | TGI (NCI-H460 lung): 1.52 µM | GI50 (NCI-H522 lung): 1.23 µM | TGI (NCI-H522 lung): 2.69 µM | GI50 (NCI/ADR-RES ovarian): 1.28 µM | TGI (NCI/ADR-RES ovarian): 3.34 µM | GI50 (OVCAR-4 ovarian): 1.8 µM | TGI (OVCAR-4 ovarian): 3.68 µM | GI50 (OVCAR-5 ovarian): 1.85 µM | TGI (OVCAR-5 ovarian): 3.39 µM | GI50 (OVCAR-8 ovarian): 1.21 µM | TGI (OVCAR-8 ovarian): 2.59 µM | GI50 (PC-3 prostate): 1.47 µM | TGI (PC-3 prostate): 2.93 µM | GI50 (RPMI-8226 leukemia): 1.63 µM | TGI (RPMI-8226 leukemia): 3.94 µM | GI50 (RXF 393 renal): 1.48 µM | TGI (RXF 393 renal): 2.93 µM | GI50 (SF-268 CNS): 1.44 µM | TGI (SF-268 CNS): 4.08 µM | GI50 (SF-539 CNS): 1.57 µM | TGI (SF-539 CNS): 3.08 µM | GI50 (SK-MEL-28 melanoma): 1.77 µM | TGI (SK-MEL-28 melanoma): 3.29 µM | GI50 (SK-MEL-5 melanoma): 1.77 µM | TGI (SK-MEL-5 melanoma): 3.27 µM | GI50 (SK-OV-3 ovarian): 2.66 µM | TGI (SK-OV-3 ovarian): > 100 µM | GI50 (SN12C renal): 1.44 µM | TGI (SN12C renal): 3.16 µM | GI50 (SNB-19 CNS): 1.72 µM | TGI (SNB-19 CNS): > 100 µM | GI50 (SNB-75 CNS): 1.52 µM | TGI (SNB-75 CNS): 3.44 µM | GI50 (SR leukemia): 0.1 µM | TGI (SR leukemia): 1.84 µM | GI50 (SW-620 colon): 1.04 µM | TGI (SW-620 colon): 2.39 µM | GI50 (U251 CNS): 0.884 µM | TGI (U251 CNS): 2.13 µM | GI50 (UACC-257 melanoma): 1.69 µM | TGI (UACC-257 melanoma): 3.2 µM | GI50 (UACC-62 melanoma): 1.97 µM | TGI (UACC-62 melanoma): 7.3 µM | GI50 (UO-31 renal): 1.5 µM | TGI (UO-31 renal): 3 µM
